Laboratory results published in PubChem BioAssay (NCI).
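Following 48 hours of exposure in 96-well plates, responses at five concentrations were used to interpolate endpoints linearly. GI50 = concentration required for 50% inhibition of growth. Definition used: TGI = concentration required for complete inhibition of growth.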

Assays:
Experiment in all cases: NCI-60 cell line screen, 48 h
HCC-2998 colon = tested on: HCC-2998 colon
HS 578T breast = tested on: HS 578T breast
BT-549 breast = tested on: BT-549 breast
T-47D breast = tested on: T-47D breast
OVCAR-3 ovarian = tested on: OVCAR-3 ovarian
U251 CNS = tested on: U251 CNS
HCT-116 colon = tested on: HCT-116 colon
SK-MEL-2 melanoma = tested on: SK-MEL-2 melanoma
A549 NSCLC = tested on: A549 NSCLC
HOP-92 NSCLC = tested on: HOP-92 NSCLC

`Cc1ccc2[nH]cc(-c3nc(-c4c[nH]c5ncccc45)cs3)c2c1` was tested, and the GI50 (HCC-2998 colon) was > 100 µM, the TGI (HCC-2998 colon) was > 100 µM and the GI50 (HS 578T breast) was > 100 µM. For the same molecule, the TGI (HS 578T breast) was > 100 µM, the GI50 (BT-549 breast) was > 100 µM and the TGI (BT-549 breast) was > 100 µM. The GI50 (T-47D breast) was > 100 µM, the TGI (T-47D breast) was > 100 µM and the GI50 (OVCAR-3 ovarian) was > 100 µM. For the same molecule, the TGI (OVCAR-3 ovarian) was > 100 µM, the GI50 (U251 CNS) was > 100 µM and the TGI (U251 CNS) was > 100 µM. For the same molecule, the GI50 (HCT-116 colon) was > 100 µM, the TGI (HCT-116 colon) was > 100 µM and the GI50 (SK-MEL-2 melanoma) was > 100 µM. For the same molecule, the TGI (SK-MEL-2 melanoma) was > 100 µM, the GI50 (A549 NSCLC) was > 100 µM and the TGI (A549 NSCLC) was > 100 µM.
For `CCCC/C=C1\CCC(CN2CCCCC2)C1=O` (stereo not drawn), the TGI (HCC-2998 colon) was 22.6 µM, the TGI (HS 578T breast) was > 100 µM and the TGI (BT-549 breast) was > 100 µM. For the same molecule, the TGI (T-47D breast) was > 100 µM, the TGI (OVCAR-3 ovarian) was 46 µM and the TGI (U251 CNS) was 44.1 µM. The TGI (HCT-116 colon) was 36.7 µM, the TGI (SK-MEL-2 melanoma) was > 54.4 µM and the TGI (HOP-92 NSCLC) was 21 µM. It also gave a TGI (A549 NSCLC) of 52.9 µM.
Molecule `COc1ccc2[nH]c(C(=O)N3CC(CCl)c4ccc(N)cc43)cc2c1` (stereo not drawn) has a TGI (HCC-2998 colon) of 0.383 µM, a TGI (HS 578T breast) of 1.32 µM and a TGI (BT-549 breast) of 6.97 µM. The TGI (T-47D breast) was > 100 µM, the TGI (U251 CNS) was > 31.6 µM and the TGI (SK-MEL-2 melanoma) was 0.396 µM. The TGI (HOP-92 NSCLC) was > 100 µM and the TGI (A549 NSCLC) was > 86.9 µM.
With `CC(=O)OC(Cc1cc(C=C(C(F)(F)F)C(F)(F)F)cc(C)n1)(C(F)(F)F)C(F)(F)F` the TGI (HCC-2998 colon) was 13.3 µM, the TGI (HS 578T breast) was 18 µM and the TGI (BT-549 breast) was 4.96 µM. For the same molecule, the TGI (T-47D breast) was 6.88 µM, the TGI (OVCAR-3 ovarian) was 3.57 µM and the TGI (U251 CNS) was 4.74 µM. The TGI (HCT-116 colon) was 2.91 µM, the TGI (SK-MEL-2 melanoma) was > 100 µM and the TGI (HOP-92 NSCLC) was 2.32 µM. It also gave a TGI (A549 NSCLC) of 12.4 µM.
Work on `O=C1C(Br)=CC2([N+](=O)[O-])CCNc3c(O)c4c5c(c3C2=C1Br)=NCCC=5C=N4` (stereo not drawn) yielded a TGI (HCC-2998 colon) of 13.2 µM, a TGI (OVCAR-3 ovarian) of 0.784 µM and a TGI (U251 CNS) of 3.96 µM. The TGI (HCT-116 colon) was 1.09 µM, the TGI (SK-MEL-2 melanoma) was 3.15 µM and the TGI (HOP-92 NSCLC) was 2.07 µM. The TGI (A549 NSCLC) was 16.3 µM.
